Data published in PubChem BioAssay (NCI).
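Cultured in 96-well plates, cells were exposed to test compound for 48 hours across five concentrations. TGI: total growth inhibition.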

How the values were obtained:
Experiment in all cases: NCI-60 cell line screen, 48 h
HOP-92 NSCLC = test system: HOP-92 NSCLC
HCT-15 colon = test system: HCT-15 colon
UACC-62 melanoma = test system: UACC-62 melanoma
CCRF-CEM leukemia = test system: CCRF-CEM leukemia
NCI-H23 lung = test system: NCI-H23 lung
OVCAR-5 ovarian = test system: OVCAR-5 ovarian
TK-10 renal = test system: TK-10 renal
BT-549 breast = test system: BT-549 breast
HS 578T breast = test system: HS 578T breast
U251 CNS = test system: U251 CNS
786-0 renal = test system: 786-0 renal
SN12C renal = test system: SN12C renal
EKVX NSCLC = test system: EKVX NSCLC
NCI-H460 lung = test system: NCI-H460 lung
MDA-MB-231 breast = test system: MDA-MB-231 breast
MDA-N = test system: MDA-N
HOP-62 NSCLC = test system: HOP-62 NSCLC
SW-620 colon = test system: SW-620 colon
SK-OV-3 ovarian = test system: SK-OV-3 ovarian
NCI/ADR-RES ovarian = test system: NCI/ADR-RES ovarian
OVCAR-4 ovarian = test system: OVCAR-4 ovarian
A549 NSCLC = test system: A549 NSCLC
HCC-2998 colon = test system: HCC-2998 colon
OVCAR-3 ovarian = test system: OVCAR-3 ovarian
RXF 393 renal = test system: RXF 393 renal
SK-MEL-2 melanoma = test system: SK-MEL-2 melanoma
M14 melanoma = test system: M14 melanoma
CAKI-1 renal = test system: CAKI-1 renal
HT29 colon = test system: HT29 colon
A498 renal = test system: A498 renal
MDA-MB-435 = test system: MDA-MB-435
MOLT-4 leukemia = test system: MOLT-4 leukemia
IGROV1 ovarian = test system: IGROV1 ovarian
SNB-75 CNS = test system: SNB-75 CNS
SF-268 CNS = test system: SF-268 CNS
MCF7 breast = test system: MCF7 breast
ACHN renal = test system: ACHN renal
UACC-257 melanoma = test system: UACC-257 melanoma
HL-60(TB) leukemia = test system: HL-60(TB) leukemia
SF-295 CNS = test system: SF-295 CNS
KM12 colon = test system: KM12 colon
NCI-H522 lung = test system: NCI-H522 lung
SF-539 CNS = test system: SF-539 CNS
SNB-19 CNS = test system: SNB-19 CNS
COLO 205 colon = test system: COLO 205 colon
UO-31 renal = test system: UO-31 renal
LOX IMVI melanoma = test system: LOX IMVI melanoma
HCT-116 colon = test system: HCT-116 colon
PC-3 prostate = test system: PC-3 prostate
RPMI-8226 leukemia = test system: RPMI-8226 leukemia
NCI-H226 lung = test system: NCI-H226 lung
K-562 leukemia = test system: K-562 leukemia
DU-145 prostate = test system: DU-145 prostate
MALME-3M melanoma = test system: MALME-3M melanoma
SK-MEL-5 melanoma = test system: SK-MEL-5 melanoma
OVCAR-8 ovarian = test system: OVCAR-8 ovarian
SK-MEL-28 melanoma = test system: SK-MEL-28 melanoma

`COc1cc(N(C)C)c(OC)cc1/C=C\c1ccnc2ccccc12` was tested. Which TGI (HOP-92 NSCLC) did it give?
Its TGI is 9.42 µM.

What about the TGI (HCT-15 colon) of the same compound?
The TGI was > 10 µM.

What about the TGI (UACC-62 melanoma) of the same compound?
Its TGI is > 10 µM.

And the TGI (CCRF-CEM leukemia)?
Its TGI is 9.41 µM.

And the TGI (NCI-H23 lung)?
The TGI was > 10 µM.

What about the TGI (OVCAR-5 ovarian) of the same compound?
Its TGI is > 10 µM.

What about the TGI (TK-10 renal) of the same compound?
Its TGI is > 10 µM.

What about the TGI (BT-549 breast) of the same compound?
Its TGI is > 10 µM.

What about the TGI (HS 578T breast) of the same compound?
Its TGI is > 10 µM.

What about the TGI (U251 CNS) of the same compound?
Its TGI is > 10 µM.

What about the TGI (786-0 renal) of the same compound?
The TGI was > 10 µM.

What about the TGI (SN12C renal) of the same compound?
The TGI was > 10 µM.

And the TGI (EKVX NSCLC)?
The TGI was > 10 µM.

What about the TGI (NCI-H460 lung) of the same compound?
The TGI was > 10 µM.

And the TGI (MDA-MB-231 breast)?
Its TGI is > 10 µM.

And the TGI (MDA-N)?
The TGI was 3.97 µM.

What about the TGI (HOP-62 NSCLC) of the same compound?
Its TGI is > 10 µM.

And the TGI (SW-620 colon)?
Its TGI is > 10 µM.

What about the TGI (SK-OV-3 ovarian) of the same compound?
The TGI was > 10 µM.

And the TGI (NCI/ADR-RES ovarian)?
Its TGI is 7.66 µM.

And the TGI (OVCAR-4 ovarian)?
Its TGI is > 10 µM.

And the TGI (A549 NSCLC)?
Its TGI is > 10 µM.

What about the TGI (HCC-2998 colon) of the same compound?
The TGI was > 10 µM.

What about the TGI (OVCAR-3 ovarian) of the same compound?
Its TGI is > 10 µM.

And the TGI (RXF 393 renal)?
The TGI was > 10 µM.

What about the TGI (SK-MEL-2 melanoma) of the same compound?
The TGI was 8.03 µM.

What about the TGI (M14 melanoma) of the same compound?
Its TGI is > 10 µM.

And the TGI (CAKI-1 renal)?
The TGI was > 10 µM.

And the TGI (HT29 colon)?
The TGI was > 10 µM.

And the TGI (A498 renal)?
The TGI was 9.92 µM.

And the TGI (MDA-MB-435)?
Its TGI is 4.26 µM.

What about the TGI (MOLT-4 leukemia) of the same compound?
The TGI was 8.06 µM.

What about the TGI (IGROV1 ovarian) of the same compound?
The TGI was > 10 µM.

What about the TGI (SNB-75 CNS) of the same compound?
The TGI was 9.62 µM.

What about the TGI (SF-268 CNS) of the same compound?
Its TGI is > 10 µM.

And the TGI (MCF7 breast)?
The TGI was > 10 µM.

What about the TGI (ACHN renal) of the same compound?
The TGI was > 10 µM.

What about the TGI (UACC-257 melanoma) of the same compound?
The TGI was > 10 µM.

And the TGI (HL-60(TB) leukemia)?
Its TGI is 7.99 µM.

What about the TGI (SF-295 CNS) of the same compound?
Its TGI is > 10 µM.

And the TGI (KM12 colon)?
The TGI was > 10 µM.

What about the TGI (NCI-H522 lung) of the same compound?
Its TGI is > 10 µM.

What about the TGI (SF-539 CNS) of the same compound?
The TGI was 6.48 µM.

What about the TGI (SNB-19 CNS) of the same compound?
Its TGI is > 10 µM.

What about the TGI (COLO 205 colon) of the same compound?
The TGI was > 10 µM.

What about the TGI (UO-31 renal) of the same compound?
Its TGI is > 10 µM.

And the TGI (LOX IMVI melanoma)?
The TGI was > 10 µM.

What about the TGI (HCT-116 colon) of the same compound?
The TGI was > 10 µM.

What about the TGI (PC-3 prostate) of the same compound?
Its TGI is > 10 µM.

What about the TGI (RPMI-8226 leukemia) of the same compound?
The TGI was 7.32 µM.

What about the TGI (NCI-H226 lung) of the same compound?
The TGI was > 10 µM.

What about the TGI (K-562 leukemia) of the same compound?
The TGI was > 10 µM.

And the TGI (DU-145 prostate)?
The TGI was > 10 µM.

And the TGI (MALME-3M melanoma)?
Its TGI is > 10 µM.

What about the TGI (SK-MEL-5 melanoma) of the same compound?
Its TGI is 3.13 µM.

What about the TGI (OVCAR-8 ovarian) of the same compound?
The TGI was > 10 µM.

What about the TGI (SK-MEL-28 melanoma) of the same compound?
Its TGI is > 10 µM.
